Reference: US11919902B2, “Aryl-bipyridine amine derivatives as phosphatidylinositol phosphate kinase inhibitors” (HiberCell, Inc., priority 2017, dated 2024)

Columns and labels:
GST tagged PIP4KtypeIIB = biological target: T1, GST tagged PIP4KtypeIIB (Homo sapiens, UniProt P78356); assay: Trans-FI P kinase assay PIP4K2B (PIP4KtypeIIB inhibition assay); format: biochemical; conditions: Table 4; compounds listed under IC50 range headings; 100 uM GTP, 5 nM PIP4KIIB; read-out: Trans-FI P kinase assays: PIP4K2B IC50
T1 construct: made in house; host or cells: E. coli
T1 sequence (P78356 1-416): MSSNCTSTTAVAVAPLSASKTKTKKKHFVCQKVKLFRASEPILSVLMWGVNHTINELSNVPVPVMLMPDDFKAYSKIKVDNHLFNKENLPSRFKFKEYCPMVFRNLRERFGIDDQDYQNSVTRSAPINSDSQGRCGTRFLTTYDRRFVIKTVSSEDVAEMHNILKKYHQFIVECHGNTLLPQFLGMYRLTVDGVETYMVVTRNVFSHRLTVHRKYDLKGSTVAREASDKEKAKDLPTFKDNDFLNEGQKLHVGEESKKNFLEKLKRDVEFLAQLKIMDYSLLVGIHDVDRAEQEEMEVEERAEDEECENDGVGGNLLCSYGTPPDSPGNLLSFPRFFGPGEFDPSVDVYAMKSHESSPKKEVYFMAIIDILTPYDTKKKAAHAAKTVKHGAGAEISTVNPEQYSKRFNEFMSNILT
In short: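 Transcreener FI fluorescence, converted to GDP by calibration, tracked product from 5 nM E. coli-expressed GST-PIP4KIIB acting on 80 uM PI5P (DOPE carrier) with 100 uM GTP. Compound (top 4.8 uM final, 5% DMSO) was preincubated 1 h at 27 C before the 2 h reaction; IC50 fitted from residual activity.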

[1] = biological target: T2, PIP4K2A (full length protein, SignalChem) (Homo sapiens, UniProt P48426); assay: Kinase Assay PIP4K2 A (Sprint); ADP-Glo biochemical assay; conditions: Table 2; compounds listed under IC50 range headings
T2 construct: 4 nM PIP4K2A (full length protein, SignalChem); purchased SignalChem
T2 sequence (P48426 1-406): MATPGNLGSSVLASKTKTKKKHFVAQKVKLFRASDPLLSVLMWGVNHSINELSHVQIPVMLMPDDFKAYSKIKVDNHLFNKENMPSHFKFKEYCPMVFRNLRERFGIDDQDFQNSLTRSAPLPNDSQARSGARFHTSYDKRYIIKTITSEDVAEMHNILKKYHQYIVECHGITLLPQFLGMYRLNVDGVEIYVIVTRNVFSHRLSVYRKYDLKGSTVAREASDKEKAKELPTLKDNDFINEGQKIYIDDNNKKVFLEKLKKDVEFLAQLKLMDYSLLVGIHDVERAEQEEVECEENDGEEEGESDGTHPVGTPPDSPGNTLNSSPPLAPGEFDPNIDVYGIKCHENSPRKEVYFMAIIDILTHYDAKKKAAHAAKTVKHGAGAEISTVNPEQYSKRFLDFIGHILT
In short: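 ADP-Glo luminescence detected ADP after a 1 h RT reaction started with 60 μM ATP solution. Before that, full-length PIP4K2A (4 nM in mix) with 100 μM PI(5)P diC8 was pre-incubated 15 min with compounds in MOPS buffer pH 7.2, 25 mM MgCl2, 0.005% Tween 20. IC50 derived from % inhibition relative to DMSO over 10 three-fold concentrations.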

GST tagged PIP4KtypeIIA = biological target: T3, GST tagged PIP4KtypeIIA (Homo sapiens, UniProt P48426); assay: ADP-glo kinase assay PIP4K 2A (PIP4KtypeIIA inhibition assay); format: biochemical; conditions: Table 3; compounds listed under IC50 range headings; 10 uM ATP, 0.5 nM PIP4KIIA
T3 construct: made in house; host or cells: E. coli
T3 sequence (P48426 1-406): T2 sequence (P48426 1-406)
In short: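 Read-out was ADP-Glo luminescence converted to μM ADP, with IC50 plotted as % of no-inhibitor activity against log concentration. Reactions contained 10 μM ATP, 80 μM PI5P with DOPE carrier, and 0.5 nM GST-tagged PIP4KIIA (E. coli-expressed) in pH 7.3 HEPES/MgCl2 buffer with 5% DMSO. Enzyme and compound (≤4.8 μM) were preincubated 1 h at 27 °C before the 1 h reaction.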

Work on CC(C)n1cnnc1-c1ccc(-c2cncc(-c3ccnc4c3cc3n4CCN(C)C3=O)c2)cc1 [Example 384, 4-(5-(4-(4-isopropyl-4H-1,2,4-triazol-3-yl)phenyl)pyridin-3-yl)-7-methyl-8,9-dihydropyrido[3′,2′:4,5]pyrrolo[1,2-a]pyrazin-6(7H)-one] yielded an IC50 (GST tagged PIP4KtypeIIB) of 10 to 100 nM, an IC50 [1] of 100 to 1000 nM and an IC50 (GST tagged PIP4KtypeIIA) of 100 to 1000 nM.
